Data taken from patent publication US20220259551A1, “METHODS OF OPTIMIZED EUGLENA FERMENTATION USING ENGINEERED TANK DESIGN” (NOBLEGEN INC., priority 2019, published 2022).

Test system: Euglena gracilis Z
Test: Effect of organic acids, with or without glucose, on Euglena growth in shake flasks (Example 9)
Type: cell-based
Settings: for % Increase in biomass between 48 h and 120 h / Net change in biomass: higher levels of acids (~2-5 g/L) solely or with glucose (~15 g/L); for higher acid contribution to biomass when fed along with glucose vs maximum acid alone contribution: higher acid concentrations (2-5 g/L); for higher acid contribution to biomass when fed along with glucose vs maximum acid alone contribution / further improvement in net biomass concentration compared to 48 h: end of 120 h; for higher biomass compared to control (glucose alone): higher levels of acids (~2-5 g/L) + glucose ~15 g/L; for higher biomass compared to control (glucose alone) / higher biomass compared to glucose alone (control) / net biomass: end of 48 h; for higher biomass compared to glucose alone (control): lower acid supplementation (~0.0005-0.05 g/L) + glucose 15 g/L
[1] = no glucose, acid conc. 0.05 g/L, 48 h
[2] = fumaric acid 0.0005 g/L + glucose 15 g/L, 48 h
[3] = lactic acid 0.05 g/L + glucose 15 g/L, 48 h

Compound	% Increase in biomass between 48 h and 120 h [%]	Net change in biomass (incubation 48 h) [g/L]	Net change in biomass (incubation 120 h) [g/L]	Net biomass conc. (48 h) [1] [g/L]	higher acid contribution to biomass when fed along with glucose vs maximum acid alone contribution [%]	higher biomass compared to control (glucose alone) [%]	net biomass (~5 g/L as sole carbon source) [g/L]	other results
O=C(O)/C=C/C(=O)O [Fumaric acid only]	4.8	2.10	2.20					Net biomass conc. (48 h) (no glucose, acid conc. 0.0005 g/L, 48 h): 0.70 g/L
O=C[C@H](O)[C@@H](O)[C@H](O)[C@H](O)CO [Glucose (Control)]	0.0	6.50	6.50					Net biomass conc. (48 h) (Glucose conc. 15 g/L, no acid, 48 h): 6.70 g/L
CC(O)C(=O)O (stereo not drawn) [Lactic acid only]	9.5	2.10	2.30	0.60				
O=C(O)CC(O)C(=O)O (stereo not drawn) [Malic acid only]	−7.1	1.40	1.30	0.60				
CC(=O)C(=O)O [Pyruvate only]	−11.1	0.90	0.80	1.00				
O=C(O)CCC(=O)O [Succinic acid only]	13.6	2.20	2.50	0.70				
O=C(O)/C=C/C(=O)O [fumaric acid]					46.67	12.3	2.10	conversion efficiency (15 g/L glucose and 2 g/L fumaric acid, 120 h): 57.4%; conversion efficiency (15 g/L glucose and 5 g/L fumaric acid, 120 h): 58.41%; biomass yield (g)/g of carbon, higher than glucose alone [2]: 8.4%; higher conversion efficiency compared to glucose alone (15 g/L) [2]: 21.9%; maximum biomass obtained (fumaric acid 2 g/L and 5 g/L): ~1.5 g/L; higher biomass compared to glucose alone (control): 7.5%
CC(O)C(=O)O (stereo not drawn) [lactic acid]					5.56	1.5	2.10	biomass yield (g)/g of carbon [3]: 1.35 g/g of carbon; biomass yield (g)/g of carbon, higher than the control [3]: ~13%; conversion efficiency [3]: 54.8%; conversion efficiency, higher than the glucose control [3]: ~8%; higher biomass compared to glucose alone (control): 13.4%; further improvement in net biomass concentration compared to 48 h (~5 g/L as sole carbon source): 9.5%
O=C(O)CC(O)C(=O)O (stereo not drawn) [malic acid]					63.64	4.6	1.40	higher biomass compared to glucose alone (control): −3%
CC(=O)C(=O)O [pyruvate, pyruvic acid]					72.73			net biomass (~2 g/L as sole carbon source): 0.90 g/L
O=C(O)CCC(=O)O [succinate, succinic acid]						3.1	2.20	further improvement in net biomass concentration compared to 48 h (~5 g/L as sole carbon source): 13.6%
